# Where two headings read alike, the source gives them in different places.
# Legend:
# [1] = pH response and retention of bromphenol blue in octadecylamine carboxymethylcellulose microcapsules; type: physicochemical; details: for colour of microcapsules in acid medium: rehydrated and wet stored microcapsules
# Procedure: Step 1: A 100 milligram sample of bromphenol blue (Fisher Scientific Co.) was dissolved in 25 milliliters of a 0.1% solution of sodium carboxymethylcellulose (medium viscosity, Ruger Chemical Co.) and the resulting solution was slowly pumped (approximately 1 milliliter per minute) through a capillary drawn to a fine tip (0.1 millimeter o.d.). The emerging droplets were allowed to fall a distance of about 1 centimeter into a slowly stirred 0.1% aqueous solution of octadecylamine (Aldrich Chemical Co.) solubilized as the acetate at pH 7.0.
# Step 2: The resulting approximately 1.5 millimeter diameter microcapsules were stirred for an additional hour and separated with the aid of fine netting. The microcapsules were washed with two 100 milliliter volumes of water. About half the microcapsules were stored wet and refrigerated until used. The other half of the microcapsules were lyophilized and stored dry until used.
# Step 3: A few dozen of the lyophilized microcapsules were rehydrated in a few milliliters of water for an hour and were used in parallel with the wet stored microcapsules to test their sensitivity to pH. Dilutions of hydrochloric acid were made to provide solutions with pH values of 2, 3, and 4. To these hydrochloric acid solutions, a few rehydrated and a few wet stored microcapsules were added one at a time.
# [2] = test system: bovine rotavirus strain WC3; details: WC3 stock diluted 1:50 in 0.05N sodium salt of polymer or 0.05M amine salt, pH 7.0, versus 0.9% NaCl
# [3] = spermine alginate microcapsules, 5 water washes, absorbance after dissolving microcapsules with sodium chloride
compound,measurement,setting,value
O=S1(=O)OC(c2cc(Br)c(O)c(Br)c2)(c2cc(Br)c(O)c(Br)c2)c2ccccc21 [bromphenol blue],diffusion of encapsulated indicator out of the microcapsule,"[1]; octadecylamine carboxymethylcellulose microcapsules, rehydrated and wet stored",did not diffuse out of it
same,colour of microcapsules in acid medium,[1]; pH 3 solution,changed to yellow within a few minutes
same,colour of microcapsules in acid medium,[1]; pH 4 medium,remained blue
CCCCCCCCCCCCN [dodecylamine],reduction in rotavirus infectivity,[2],complete ablation
"O=c1[nH]cc(F)c(=O)[nH]1 [fluorouracil, Fluorouracil]",initial amount of core material retained in the microcapsules during the repeated washings,[3],more than half
CN(C)c1ccc2nc3ccc(=[N+](C)C)cc-3sc2c1 [methylene blue],reduction in rotavirus infectivity,[2],Essentially no effect
C1CNCCN1 [piperazine],reduction in rotavirus infectivity,[2],30 fold
NCCCNCCCCNCCCN [spermine],reduction in rotavirus infectivity,[2],Essentially no effect
same,reduction in rotavirus infectivity,[2]; listed as spermine hydrochloride,neither sodium alginate nor spermine hydrochloride reduced rotavirus infectivity
